Assay results taken from article PMC10381309 (Journal of Fungi, 2023).
≈ marks a conversion by molar mass, not a printed value.

Key:
[1] = tested on: Exophiala dermatitidis (ATCC 28869); test: Minimum fungicidal concentration determination; format: cell-based
Experimental: (§1) Minimum fungicidal concentration (MFC) was determined in triplicate by transferring a 5 μL aliquot from each well without fungal growth of the microdilution plates used for MIC determination, as described above, onto 2% glucose Sabouraud agar (Sigma Chemical Corporation). The MFC was determined as the lowest drug concentration without fungal growth on Sabouraud agar after five days of incubation at 35 °C. When the MFC/MIC ratio of a hit drug was 1 or 2, the substance was considered fungicidal against the pathogen. If this ratio was greater than 2, the hit drug was considered to be fungistatic.

[2] = tested on: Exophiala heteromorpha (ATCC 28180); test: Minimum fungicidal concentration determination; format: cell-based
Experimental: as §1

[3] = tested on: Fonsecaea monophora (CFP 00911); test: Minimum fungicidal concentration determination; format: cell-based
Experimental: as §1

[4] = tested on: Fonsecaea nubica (CFP 00912); test: Minimum fungicidal concentration determination; format: cell-based
Experimental: as §1

[5] = tested on: Fonsecaea pedrosoi (CFP 00791); test: Minimum fungicidal concentration determination; format: cell-based
Experimental: as §1

[6] = tested on: Phialophora verrucosa (CFP 00937); test: Minimum fungicidal concentration determination; format: cell-based
Experimental: as §1

[7] = tested on: Rhinocladiela similis (CFP 00790); test: Minimum fungicidal concentration determination; format: cell-based
Experimental: as §1

[8] = tested on: Cladophialophora carrionii (CFP 00910); test: Chequerboard synergism assay (FICI); format: cell-based; settings: C. carrionii
Experimental: (§2) To assess the type of interaction between the hit drugs and the antifungal drugs most used in the treatment of CBM (itraconazole and terbinafine), the fractional inhibitory concentration index (FICI) was determined, which defines the type of interaction between drugs in combination as follows: synergism if FICI ≤ 0.5; indifference if 0.5 < FICI ≤ 4; and antagonism if FICI > 4 [39]. The FICI was obtained by the sum of the fractional inhibitory concentrations (FIC) or by the formula: (A/MIC(a) = FIC_A) + (B/MIC(b) = FIC_B) = FICI, where: A = MIC of the drug (a) in combination; MIC (a) = MIC of drug (a) alone; B = MIC of drug (b) in combination; and MIC (b) = MIC of drug (b) alone. The test was carried out using the chequerboard method, in which the two drugs were applied in a single well of a 96-well plate, so that in each of the wells there were different concentrations of the combinations between the substance and the antifungal agent (Figure S1). Drug dilutions were prepared following the methodology proposed by EUCAST, starting from a stock solution of the hit drug or antifungal drug 100× concentrated, according to the methodology described to determine the MIC [36]. Hit drug A/antifungal drug B serial microdilution preparations were performed following the above mentioned protocol, observing the final concentration in the wells after the addition of drugs and inoculum. […] Column 12 was reserved for drug B (itraconazole or terbinafine) susceptibility testing. Row H was reserved for the selected NCC substance. The other combined drug and substance concentrations were distributed between columns 2 and 11 in rows A to G. Drug concentrations ranged from 0.062 μM to 4 µM for itraconazole and terbinafine, and from 0.125 μM to 64 µM for the hit drug on the combination boards.

[9] = tested on: Exophiala dermatitidis (ATCC 28869); test: Chequerboard synergism assay (FICI); format: cell-based; settings: E. dermatitidis
Experimental: as §2

[10] = tested on: Exophiala heteromorpha (ATCC 28180); test: Chequerboard synergism assay (FICI); format: cell-based; settings: E. heteromorpha
Experimental: as §2

[11] = tested on: Fonsecaea monophora (CFP 00911); test: Chequerboard synergism assay (FICI); format: cell-based; settings: F. monophora
Experimental: as §2

[12] = tested on: Fonsecaea nubica (CFP 00912); test: Chequerboard synergism assay (FICI); format: cell-based; settings: F. nubica
Experimental: as §2

[13] = tested on: Phialophora verrucosa (CFP 00937); test: Chequerboard synergism assay (FICI); format: cell-based; settings: P. verrucosa
Experimental: as §2

[14] = Effect of albendazole on cell viability, MTT assay; format: cell-based; settings: after 96 h
Experimental: After this analysis, the effect on viability of albendazole on both HaCat (human skin keratinocyte) and Vero (monkey kidney epithelial cell) cells was evaluated by MTT assay. Firstly, the mammalian cells (5 × 10^4/well) were allowed to adhere in 96-well tissue culture plates for 4 h at 37 °C in a 5% CO2 atmosphere. Non-adherent cells were removed by washes with sterile DMEM and the wells refilled with DMEM medium supplemented with 10% FBS. The cells were then incubated with increasing concentrations of albendazole (15.62 to 750 µM) and incubated for additional 24 h and 96 h at 37 °C in a 5% CO2 atmosphere. Subsequently, the culture medium was discharged, and the formation of formazan was measured by adding MTT (5 mg/mL in PBS, 25 µg/well) and incubating the wells for 3 h in the dark at 37 °C. Wells with cells receiving only the culture medium with or without 1% DMSO were also included as positive cellular growth controls. The plates were subsequently centrifuged at 500× g for 8 min, the supernatant was removed, the pellet was dissolved in 200 µL of DMSO, and the absorbance measured in an ELISA reader at 570 nm (SpectraMax Gemini 190, Molecular Devices, CA, USA). The 50% cytotoxicity inhibitory concentration (CC50) was determined by non-linear regression analysis.

CBM agents = test: Chequerboard synergism assay, stated over all tested isolates; format: cell-based
Experimental: To assess the type of interaction between the hit drugs and the antifungal drugs most used in the treatment of CBM (itraconazole and terbinafine), the fractional inhibitory concentration index (FICI) was determined, which defines the type of interaction between drugs in combination as follows: synergism if FICI ≤ 0.5; indifference if 0.5 < FICI ≤ 4; and antagonism if FICI > 4 [39]. The FICI was obtained by the sum of the fractional inhibitory concentrations (FIC) or by the formula: (A/MIC(a) = FIC_A) + (B/MIC(b) = FIC_B) = FICI, where: A = MIC of the drug (a) in combination; MIC (a) = MIC of drug (a) alone; B = MIC of drug (b) in combination; and MIC (b) = MIC of drug (b) alone. The test was carried out using the chequerboard method, in which the two drugs were applied in a single well of a 96-well plate, so that in each of the wells there were different concentrations of the combinations between the substance and the antifungal agent (Figure S1). Drug dilutions were prepared following the methodology proposed by EUCAST, starting from a stock solution of the hit drug or antifungal drug 100× concentrated, according to the methodology described to determine the MIC [36]. Hit drug A/antifungal drug B serial microdilution preparations were performed following the above mentioned protocol, observing the final concentration in the wells after the addition of drugs and inoculum. […]

[15] = tested on: Cladophialophora carrionii (CFP 00910); settings: C. carrionii; PDA; 7 days, 37 °C; albendazole at ½ MIC
Experimental: (§3) At the end of the seven days of incubation at 37 °C, the plates were read visually. The aspect of the colonies supplemented with albendazole were compared to those of the positive melanin and inhibition melanin controls, to determine whether the color of the albendazole-supplemented cultures resembled the positive DHN-melanin or the melanin inhibition control. Pictures of the colonies were captured using a Canon EOS Rebel T7+ digital camera.

[16] = tested on: Exophiala heteromorpha (ATCC 28180); settings: E. heteromorpha; PDA; 7 days, 37 °C; albendazole at ½ MIC
Experimental: as §3

[17] = tested on: Fonsecaea pedrosoi (CFP 00791); settings: F. pedrosoi; PDA; 7 days, 37 °C; albendazole at ½ MIC
Experimental: as §3

With CCCSc1ccc2nc(NC(=O)OC)[nH]c2c1 [Albendazole] the “MFC:MIC Ratio” value ([1]; E. dermatitidis) was greater than 32, the MFC ([1]; Exophiala dermatitidis, ATCC28869) was greater than 80 µM and the “MFC:MIC Ratio” value ([2]; E. heteromorpha) was 32. The MFC ([2]; Exophiala heteromorpha, ATCC28180) was 80 µM (≈ 21.2 µg/mL), the “MFC:MIC Ratio” value ([3]; F. monophora) was 1 and the “fungicidal or fungistatic (MFC/MIC ratio)” value ([3]; F. monophora) was “fungicidal (When the MFC/MIC ratio of a hit drug was 1 or 2, the substance was considered fungicidal)”. The MFC ([3]; Fonsecaea monophora) was 0.625 µM (≈ 0.166 µg/mL), the “MFC:MIC Ratio” value ([4]; F. nubica) was 64 and the MFC ([4]; Fonsecaea nubica) was 40 µM (≈ 10.6 µg/mL). For the same compound, the “MFC:MIC Ratio” value ([5]; F. pedrosoi) was 1, the “fungicidal or fungistatic (MFC/MIC ratio)” value ([5]; F. pedrosoi) was “fungicidal (When the MFC/MIC ratio of a hit drug was 1 or 2, the substance was considered fungicidal)” and the MFC ([5]; Fonsecaea pedrosoi) was 1.25 µM (≈ 0.332 µg/mL). The “MFC:MIC Ratio” value ([6]; P. verrucosa) was 64, the MFC ([6]; Phialophora verrucosa) was 40 µM (≈ 10.6 µg/mL) and the MFC [7] was greater than 80 µM. The “MFC:MIC Ratio” value ([7]; R. similis) was greater than 64, the “FICI Albendazole + Itraconazole” value ([8]; combination with itraconazole) was 1.06 and the “FICI Albendazole + Terbinafine” value ([8]; combination with terbinafine) was 1.06. For the same compound, the “FICI Albendazole + Itraconazole” value ([9]; combination with itraconazole) was 1.06, the “FICI Albendazole + Terbinafine” value ([9]; combination with terbinafine) was 1.06 and the “FICI Albendazole + Itraconazole” value ([10]; combination with itraconazole) was 1.03. The “FICI Albendazole + Terbinafine” value ([10]; combination with terbinafine) was 1.06, the “FICI Albendazole + Itraconazole” value ([11]; combination with itraconazole) was 1.50 and the “FICI Albendazole + Terbinafine” value ([11]; combination with terbinafine) was 1.12. For the same compound, the “FICI Albendazole + Itraconazole” value ([12]; combination with itraconazole) was 1.25, the “FICI Albendazole + Terbinafine” value ([12]; combination with terbinafine) was 1.12 and the “FICI Albendazole + Itraconazole” value ([13]; combination with itraconazole) was 1.125. The “FICI Albendazole + Terbinafine” value ([13]; combination with terbinafine) was 2.12, the CC50 at 96 h ([14]; human, HaCat keratinocyte cells) was 85.1 µM and the CC50 at 96 h ([14]; monkey, Vero kidney epithelial cells) was 262 µM. The “type of interaction, albendazole with itraconazole” value (CBM agents) was “indifferent”, the “type of interaction, albendazole with terbinafine” value (CBM agents) was “indifferent” and the melanin production [15] was “did not observe a decrease in melanin production”. For the same compound, the melanin production [16] was “did not observe a decrease in melanin production” and the melanin production [17] was “did not observe a decrease in melanin production”.
